Assay results as given in patent publication US10611742B2, “4-oxo-4,5-dihydrothiazole derivative, preparation method and use thereof” (Institute of Pharmacology and Toxicology Academy of …, priority 2015, dated 2020).

Assays:
Type in all cases: cell-based
[1] = system: enterovirus EV71 (SZ-98 strain); assay: anti-EV71 activity, therapeutic effect on Vero cell (CPE inhibition, Celltiter Glo)
Experimental: (§1) Test principle: Vero cell, MRC-5 cell, and RD cell were used as host of virus, respectively, and samples were tested for their inhibition of cytopathic effect (CPE) caused by virus.
(§2) 1. Virus strain: enterovirus EV71 (SZ-98 strain, provided by Chinese Center for Disease Control and Prevention), Vero cell (provided by the Cell Bank of Chinese Academy of Sciences), MRC-5 cell (provided by the Cell Bank of Chinese Academy of Sciences), and RD cell (provided by the Cell Bank of Chinese Academy of Sciences), were subjected to passage culture, respectively, and stored at −80° C.
(§3) 2. Sample treatment: a test sample (Compounds 1-14 and positive control agent) was dissolved in dimethyl sulfoxide (DMSO) to prepare a stock solution, which was stored at −20° C. The stock solution was diluted with DMEM medium (Gibco Company) containing 2% fetal bovine serum (Gibco Company) to prepare a 100 μM solution before use, and was 3-fold diluted with the medium to obtain 8 diluted concentrates.
(§4) 3. Positive control agent: Con1 (pitstop2) (purchased from AmyJet Scientific Inc., Abcam), a broad-spectrum antiviral inhibitor.
(§5) 4. Test method: • 4.1 Therapeutic effect: the cells were seeded on a 96-well culture plate, and cultured in a 5% CO2, 37° C. incubator for 24 h. About 100 TCID50 enterovirus EV71 was added to each well. After adsorption at 37° C. for 1 h, the virus solution was discarded, and a drug was added at different diluted concentrates, respectively. Meanwhile, virus control and cell control were set, and cultured at 37° C. […] The virus-inhibition rate of a sample at each concentration was calculated based on the chemiluminescent value, the sample concentration was used as abscissa, and the inhibition rate was used as ordinate, and S-Curve fitting was performed by using Origin software. Half maximal inhibitory concentration (IC50) of each sample for enterovirus EV71 was calculated based on the fitting results. Median toxic concentration (TC50) was determined by the same method. […] To each well, a drug was added at a different diluted concentration, then the cells were cultured at 37° C. for 2 h, and then the drug was discarded. About 100 TCID50 enterovirus EV71 was added to each well, adsorbed at 37° C. for 1.5 h, then the virus solution was discarded, and a maintenance medium free of drug was added. Meanwhile, virus control and cell control were set, and cultured at 37° C. […] The virus-inhibition rate of a sample at each concentration was calculated, and half maximal inhibitory concentration (IC50), median toxic concentration (TC50), and selection index (SI) of each sample for enterovirus EV71 were calculated. The methods for determining and calculating them were as described in Item 4.1

[2] = system: enterovirus EV71 (SZ-98 strain); assay: anti-EV71 activity, therapeutic effect on MRC-5 cell (CPE inhibition, Celltiter Glo); details: MRC5
Experimental: as §1, §2, §3, §4, §5

[3] = system: enterovirus EV71 (SZ-98 strain); assay: anti-EV71 activity, therapeutic effect on RD cell (CPE inhibition, Celltiter Glo)
Experimental: as §1, §2, §3, §4, §5

[4] = system: enterovirus EV71 (SZ-98 strain); assay: anti-EV71 activity, preventive effect on Vero cell (CPE inhibition)
Experimental: as §1, §2, §3, §4, §5

[5] = system: enterovirus EV71 (SZ-98 strain); assay: anti-EV71 activity, preventive effect on RD cell (CPE inhibition)
Experimental: as §1, §2, §3, §4, §5

[6] = median toxic concentration on Vero cell; details: African green monkey, Vero cells; for CC50: Table 1-1 (therapeutic effect), read-out: TC50 (the source's name); for CC50 at 2 h: Table 2-1 (preventive effect), read-out: TC50
Experimental: as §2, §3, §5

[7] = system: Vero cell; assay: median toxic concentration on Vero cell
Experimental: as §2, §3, §5

[8] = median toxic concentration on MRC-5 cell; details: human, MRC-5 cells, Table 1-2 (therapeutic effect), read-out: TC50 (the source's name)
Experimental: as §2, §3, §5

[9] = median toxic concentration on RD cell; details: human, RD cells; for CC50 at 2 h: Table 2-2 (preventive effect), read-out: TC50; for CC50: read-out: TC50 (the source's name)
Experimental: as §2, §3, §5

[10] = system: clathrin-mediated endocytosis of transferrin; assay: inhibition of clathrin-mediated endocytosis of transferrin in HeLa cells (fluorescence microscope); details: for inhibitory effect on endocytosis of transferrin (in words): 1.25 to 40 μmol/L; for inhibition at 20 µM: Homo sapiens, 20 μM compound, read-out: Inhibition rate
Experimental: 1. Experiment principle: transferrin was a key protein for clathrin-mediated endocytosis. Therefore, by determining the effect of a compound on transferrin in HeLa cell, the inhibitory effect of the compound on clathrin-mediated endocytosis could be evaluated. 2. Sample treatment: a test compound was dissolved in DMSO to prepare a stock solution, which was stored at −20° C. The stock solution was diluted with HEPES buffer (25 mm HEPES, 20 mm Glucose, 1% BSA, sterile water) to prepare a solution with an initial concentration of […] before use, and was 2-fold diluted with the buffer to obtain 6 diluted concentrations from 1.25 to 40 μmol/L. 4. Test method: HeLa cells (provided by the Cell Bank of Chinese Academy of Sciences) were seeded on a 24-well culture plate coated with 0.1 mg/ml polylysine, a serum-free medium DMEM (Gibco Company) was added at 500 μl/well, and the cells were cultured for one night. To each well, 0.5 μl a test compound at a different diluted concentration or 0.1 v/v % DMSO was added, then the pretreatment was performed for 15 min, and then 20 μg/ml alexa^568 transferrin (2 μl) (TF, SIGMA-ALDRICH Company) was added, and the incubation was carried out at 37° C. for 15 min. The resultant mixture was then washed with Live Cell Imaging Solution (LCIS, Invitrogen Company) and an acid at a low pH ([…] NaCl solution containing 0.5% acetic acid) for 30 s, respectively, followed by fixing with cold methanol, and was observed under fluorescence microscope.

[11] = EV71 (SZ-98 strain), therapeutic effect on Vero cell, read-out: IC50

Compound	IC50 [1, 11]	IC50 ([1]; Enterovirus, EV71, Vero cell, read-out: activity (IC50))	IC50 [2]	anti-EV71 activity (in words) [3]	IC50 ([3]; EV71 (SZ-98 strain))	IC50 ([3]; Enterovirus, EV71)	IC50 [4]	IC50 [5]	CC50 [6]	CC50 at 2 h [6]	toxicity compared with the positive control agent (in words) [7]	CC50 [8]	CC50 at 2 h [9]	CC50 [9]	endocytosis of transferrin at 20 μM (in words) ([10]; 20 μM)	inhibitory effect on endocytosis of transferrin (in words) [10]	inhibition at 20 µM [10]	TC50 ([7]; Table 1-1 (therapeutic effect))	CC50 ([9]; Table 1-3 (therapeutic effect))
CCN(CC)c1ccc(/C=C2\SC(NS(=O)(=O)c3cccc4ccccc34)=NC2=O)c(O)c1 [Compound 3, Naphthalene-1-sulfonic acid [5-(2-hydroxy-4-diethylamino-benzylidene)-4-oxo-4,5-dihydro-thiazol-2-yl] amide]	5.14 µM	5.14 µM	> 7.41 µM	better anti-EV71 activity	7.41 µM	7.41 µM	> 7.41 µM	> 7.41 µM	12.8 µM	12.8 µM	a lower toxicity than the positive control agent	12.8 µM	12.8 µM	12.8 µM	completely inhibited	dose-dependent	100%		
O=C1N=C(NS(=O)(=O)c2cccc3ccccc23)S/C1=C\c1ccc(C(=O)O)cc1 [Compound 5, Naphthalene-1-sulfonic acid [5-(4-carboxy-benzylidene)-4-oxo-4,5-dihydro-thiazol-2-yl] amide]	> 200 µM		> 200 µM	better anti-EV71 activity	22.2 µM		≥ 22.2 µM	200 µM		200 µM		> 200 µM	> 200 µM					200 µM	> 200 µM
O=C1N=C(NS(=O)(=O)c2cccc3ccccc23)S/C1=C\c1ccc(Br)cc1 [Con 1, Naphthalene-1-sulfonic acid [5-(4-bromo-benzylidene)-4-oxo-4,5-dihydro-thiazol-2-yl] amide, reference compound]	> 2.47 µM		> 2.47 µM		5.41 µM	5.14 µM	> 2.47 µM	5.14 µM	4.28 µM	4.28 µM		10.7 µM	12.8 µM	12.8 µM		dose-dependent	50%		
